# Measured values reported in patent EP4471048A1, “PEPTIDE INHIBITORS OF INTERLEUKIN-23 RECEPTOR” (Zealand Pharma A/S, priority 2023, dated 2024).
# Read-outs that look alike come from different tables or passages of the source. *1 amine or outer side, *2 acyl side, *3 side chain or, on linkers, in order; H or OH if unused. Where a SMILES comes first, the peptide text is derived from it. Bridges are numbered along the chain shown (N, C = ends). [ ]: non-standard residue; d: D form. 2Nal = N[C@@H](Cc1ccc2ccccc2c1)C(=O)O; AEF = NCCOc1ccc(C[C@H](N)C(=O)O)cc1; X1 = O=C(Cc1ccc(CN[*:1])cc1)[*:2]; αMeL = CC(C)C[C@](C)(N)C(=O)O; CH2COCH2 = O=C(C[*:1])C[*:2]; Dab = NCC[C@H](N)C(=O)O
# Legend:
# human IL-23R = biological target: T1, human IL-23R (Homo sapiens, UniProt Q5VWK5); experiment: biochemical
# T1 sequence (Q5VWK5 22-629): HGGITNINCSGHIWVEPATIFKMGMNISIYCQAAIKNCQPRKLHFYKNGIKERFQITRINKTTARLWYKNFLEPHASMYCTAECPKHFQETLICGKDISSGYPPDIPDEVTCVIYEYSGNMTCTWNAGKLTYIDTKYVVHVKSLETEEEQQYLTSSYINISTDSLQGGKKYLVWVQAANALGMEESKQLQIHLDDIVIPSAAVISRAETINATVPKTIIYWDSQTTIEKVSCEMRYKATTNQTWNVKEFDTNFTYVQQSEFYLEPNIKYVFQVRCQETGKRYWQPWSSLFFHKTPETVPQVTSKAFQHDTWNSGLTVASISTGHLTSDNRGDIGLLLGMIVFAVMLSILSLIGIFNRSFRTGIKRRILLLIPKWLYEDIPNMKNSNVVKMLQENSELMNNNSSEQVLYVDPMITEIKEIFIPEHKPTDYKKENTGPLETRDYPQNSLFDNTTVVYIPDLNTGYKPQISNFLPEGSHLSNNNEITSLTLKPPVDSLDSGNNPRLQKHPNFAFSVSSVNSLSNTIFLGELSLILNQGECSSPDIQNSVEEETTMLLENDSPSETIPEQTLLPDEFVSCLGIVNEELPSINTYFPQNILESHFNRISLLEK
# Method in brief: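 Membranes from HEK293 cells stably expressing Nluc-tagged human IL-23R were incubated 2 h at room temperature with test compound and a fluorophore-labelled tracer. After substrate addition, loss of BRET (TAMRA over luciferase emission) reported tracer displacement. A 4PL fit gave IC50 values.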
# [1] = biological target: IL-23 mediated signalling (Homo sapiens, UniProt Q5VWK5); experiment: Functional inhibition of IL-23 mediated STAT3 signalling (phospho-STAT3 MSD) in DB cells; assay type: cell-based; details: for Emax: read-out: hIL-23 (pSTAT3) antagonist % inhibition
# Method in brief: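 DB cells preincubated with inhibitor 15 min at 37 °C, then stimulated 90 min with EC80 human IL-23; lysate phospho-STAT3 measured by MSD electrochemiluminescence. Signal normalized to IL-23-alone and buffer controls; IC50 and maximal % inhibition from 4-parameter logistic fit.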
# [2] = Peptide stability in simulated intestinal fluid (SIF); assay type: in vitro ADME; details: 37 °C, porcine pancreatin; for SIF (% remaining 1 h) / remaining at 1 h, 10 µM: pH 6.8, 1 h; for remaining at 1 h, 10 µM / remaining at 4 h, 10 µM: pig
# Method in brief: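 Peptides were incubated at 37 °C with gentle shaking in pH 6.8 potassium phosphate SIF containing porcine pancreatin (10 g/L). Supernatants were analysed by LC-HRMS. Percent remaining at each timepoint, including 4 h, was calculated relative to time zero from absolute peak areas.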
# [3] = Peptide stability in simulated gastric fluid (SGF); assay type: in vitro ADME; details: 37 °C, porcine pepsin; for SGF (% remaining 1 h) / remaining at 1 h, 10 µM: pH 1.2, 1 h; for remaining at 1 h, 10 µM / remaining at 4 h, 10 µM: pig, simulated gastric fluid (SGF) with porcine pepsin (3.2 g/L); for remaining at 1 h, 10 µM: read-out: SGF (% remaining 1 h)
# Method in brief: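 Peptide incubated at 37 °C with gentle shaking in SGF (NaCl, pH 1.2). Samples centrifuged, diluted and analysed by LC-HRMS; percent remaining at each timepoint from absolute peak areas relative to time zero, with 4 h as the reference point.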
# [4] = Table 3-2, DB cells, hIL-23 at EC80, read-out: hIL-23 (pSTAT3) antagonist IC50
# [5] = Table 3-2, maximal inhibitory response, DB cells, hIL-23 at EC80
# [6] = SAR tables 2-1 to 2-7, DB cells, hIL-23 at EC80, read-out: IC50 (pSTAT3)
# [7] = SAR tables, % peptide remaining, pH 6.8, 4 h, read-out: SIF (% after 4 h)
# [8] = pH 1.2, 10 µM, pH 1.2, 4 h, read-out: SGF (% remaining 4 h)
# [9] = pH 6.8, 4 h, read-out: SIF (% remaining 4 h)
IC50 (human IL-23R),Ki (human IL-23R),"SIF (% remaining 4 h) ([2]; 10 µM, pH 6.8, 4 h)","IC50 [1, 4]","Emax [1, 5]",% displacement (hIL-23R NIuc) (human IL-23R),"IC50 [1, 6]","remaining at 1 h, 10 µM [2]","remaining at 4 h, 10 µM [2, 7]","remaining at 1 h, 10 µM ([3]; pH 1.2, 10 µM)","remaining at 4 h, 10 µM [3, 8]",Structure (SMILES),further results
> 1000 nM,> 1000 nM,0%,> 1000 nM,23%,,,,,,,"CSCC[C@H](NC(=O)[C@@H]1CSCC(=O)CSC[C@H](NC(=O)[C@@H](N)CCC(=O)O)C(=O)N[C@@H](Cc2c[nH]c3ccccc23)C(=O)N[C@@H](CC(C)C)C(=O)N[C@H]2CSCC(=O)CSC[C@H](NC(=O)[C@H](CC(N)=O)NC(=O)[C@H](CCCNC(=N)N)NC(=O)[C@H](Cc3ccc(O)cc3)NC(=O)[C@H](Cc3ccc(O)cc3)NC2=O)C(=O)N[C@@H](CC(N)=O)C(=O)N1)C(N)=O (single isomer, unassigned) [I4 (isomer 3), H-EC(4a)WLC(5a)YYRNC(5a)NC(4a)M-[NH2], reference compound]","SIF (% remaining 1 h) ([2]; 10 µM): 0%; SGF (% remaining 1 h) ([3]; 10 µM): 99%; SGF (% remaining 4 h) ([3]; 10 µM, pH 1.2, 4 h): 99%"
4 nM,,5%,,100%,100%,15 nM,77%,5%,100%,101%,"CNC(=O)[C@H](Cc1cccnc1)NC(=O)[C@H](CCN)NC(=O)[C@@H]1CCC(=O)NCCCC[C@@H]2NC(=O)CC[C@H](NC(=O)[C@H](CCC(N)=O)NC(=O)[C@H](Cc3c[nH]c4ccccc34)NC(=O)CNC2=O)C(=O)N[C@@H](Cc2ccc(OCCN)cc2)C(=O)N[C@@H](Cc2ccc3ccccc3c2)C(=O)N[C@@](C)(CC(C)C)C(=O)N1 [Compound 44, K(1c)(6c)^†GWQE(6c)[Y(2-aminoethoxy)][2-Nal][2-Me-Leu]E(1c)[Dab][3-(3-Pyridyl)-Ala]-[NHMe]]",
0.022 nM,,87%,,100%,100%,0.058 nM,90%,87%,98%,103%,"CNC(=O)[C@H](Cc1cccnc1)NC(=O)[C@H](CCN)NC(=O)[C@@H]1CCC(=O)NCCCC[C@@H]2NC(=O)CC[C@H](NC(=O)[C@H](CCC(N)=O)NC(=O)[C@H](Cc3c[nH]c4ccccc34)NC(=O)CCNC2=O)C(=O)N[C@@H](Cc2ccc(OCCN)cc2)C(=O)N[C@@H](Cc2ccc3ccccc3c2)C(=O)N[C@@](C)(CC(C)C)C(=O)N1 [Compound 45, K(1c)(6c)^†[3-Aminopropanoyl]WQE(6c)[Y(2-aminoethoxy)][2-Nal][2-Me-Leu]E(1c)[Dab][3-(3-Pyridyl)-Ala]-[NHMe]]",
0.049 nM,,71%,,101%,95%,,76%,71%,120%,,"CC[C@H](C)[C@@H]1NC(=O)[C@@H]2CCCCNC(=O)CC[C@@H](C(=O)N[C@@H](CCN)C(=O)N[C@@H](Cc3cccnc3)C(=O)NC)NC(=O)[C@](C)(CC(C)C)NC(=O)[C@H](Cc3ccc4ccccc4c3)NC(=O)[C@H](Cc3ccc(OCCN)cc3)NC(=O)[C@H](CCC(=O)N2)NC(=O)[C@H](CCC(N)=O)NC(=O)[C@H](Cc2c[nH]c3ccccc23)NC(=O)[C@H](C(C)C)NC1=O [Compound 60, K(1c)(6c)^†IVWQE(6c)[Y(2-aminoethoxy)][2-Nal][2-Me-Leu]E(1c)[Dab][3-(3-Pyridyl)-Ala]-[NHMe]]","SIF (% after 4 h) ([2]; SAR tables, % peptide remaining, 10 µM, pH 6.8, 4 h): 71%; SGF (% after 4 h) ([3]; SAR tables, % peptide remaining, 10 µM, pH 1.2, 4 h): 109%; remaining at 4 h, 10 µM ([3]; pH 1.2, SAR tables, % peptide remaining, 10 µM, pH 1.2, 4 h, read-out: SGF (% after 4 h)): 109%"
0.024 nM,,42%,,100%,,0.014 nM,74%,42%,104%,101%,"CNC(=O)[C@H](Cc1cccnc1)NC(=O)[C@H](CCN)NC(=O)[C@@H]1CCC(=O)NCCCC[C@H]2CC(=O)NCC(=O)N[C@@H](Cc3c[nH]c4ccccc34)C(=O)N[C@@H](CCC(N)=O)C(=O)N[C@@H](CCC(=O)N2)C(=O)N[C@@H](Cc2ccc(OCCN)cc2)C(=O)N[C@@H](Cc2ccc3ccccc3c2)C(=O)N[C@@](C)(CC(C)C)C(=O)N1 [Compound 99, [beta-hLys](1c)(6c)^†GWQE(6c)[Y(2-aminoethoxy)][2-Nal][2-Me-Leu]E(1c)[Dab][3-(3-Pyridyl)-Ala]-[NHMe]]",Emax (human IL-23R; read-out: % displacement (hIL-23R NIuc)): 101%
0.39 nM,0.318 nM,,21 nM,95%,101%,,99%,,,,"CC(C)C[C@]1(C)NC(=O)[C@H](Cc2ccc3ccccc3c2)NC(=O)[C@H](Cc2ccc(OCCN)cc2)NC(=O)[C@@H]2CSCC(=O)CSC[C@H](NC(=O)[C@H](CO)NC(=O)Cc3ccc(cc3)CNC(=O)CC[C@@H](C(=O)N[C@@H](CO)C(N)=O)NC1=O)C(=O)N[C@@H](Cc1c[nH]c3ccccc13)C(=O)N[C@@H](CCC(N)=O)C(=O)N2 [Ref 81, [4-Aminomethyl-phenylacetyl](1c)*SC(2a)WQC(2a)[Y(2-aminoethoxy)][2-Nal][2-Me-Leu]E(1c)S-[NH2], reference compound]","remaining at 4 h, 10 µM [2, 9]: 77%"
0.082 nM,0.0665 nM,,11 nM,97%,103%,,95%,,,,"CC(C)C[C@]1(C)NC(=O)[C@H](Cc2ccc3ccccc3c2)NC(=O)[C@H](Cc2ccc(OCCN)cc2)NC(=O)[C@@H]2CSCC(=O)CSC[C@H](NC(=O)[C@H](CO)NC(=O)Cc3ccc(cc3)CNC(=O)CC[C@@H](C(=O)N[C@@H](CCN)C(N)=O)NC1=O)C(=O)N[C@@H](Cc1c[nH]c3ccccc13)C(=O)N[C@@H](CCC(N)=O)C(=O)N2 [Ref 82, [4-Aminomethyl-phenylacetyl](1c)*SC(2a)WQC(2a)[Y(2-aminoethoxy)][2-Nal][2-Me-Leu]E(1c)[Dab]-[NH2], reference compound] ([X1]SCWQC[AEF][2Nal][αMeL]E[Dab]-NH2; linker 3-6 via CH2COCH2; lactam N-10)","remaining at 4 h, 10 µM [2, 9]: 77%"

Structure (SMILES),IC50 (human IL-23R),Ki (human IL-23R),"SIF (% remaining 4 h) ([2]; 10 µM, pH 6.8, 4 h)","IC50 [1, 4]","Emax [1, 5]",% displacement (hIL-23R NIuc) (human IL-23R),"IC50 [1, 6]","remaining at 1 h, 10 µM [2]","remaining at 4 h, 10 µM [2, 7]","remaining at 1 h, 10 µM ([3]; pH 1.2, 10 µM)","remaining at 4 h, 10 µM [3, 8]",further results
"CC(C)C[C@@H]1NC(=O)[C@H](Cc2c[nH]c3ccccc23)NC(=O)[C@H](Cc2c[nH]c3ccccc23)NC(=O)[C@@H]2CSCC(=O)CSC[C@H](NC(=O)[C@H]([C@@H](C)O)NC(=O)[C@@H](NC(=O)CN)CSCC(=O)CSC[C@@H](C(=O)N[C@@H](CO)C(N)=O)NC1=O)C(=O)N[C@@H](Cc1c[nH]c3ccccc13)C(=O)N[C@@H](CCC(=O)O)C(=O)N2 (single isomer, unassigned) [I1 (isomer 3), H-GC(1a)TC(2a)WEC(2a)WWLC(1a)S-[NH2], reference compound]",130 nM,104 nM,0%,,,,,,,,,"IC50 [1]: > 1000 nM; Emax ([1]; DB): 83%; SIF (% remaining 1 h) ([2]; 10 µM): 0%; SGF (% remaining 1 h) ([3]; 10 µM): 92%; SGF (% remaining 4 h) ([3]; 10 µM, pH 1.2, 4 h): 94%"
